Common to all, as to format: in vivo
In assay [1] the test system is Alopecurus myosuroides (ALOMY). Nature of the assay: Pre-emergence biological efficacy, glasshouse, 1000 g/ha, evaluated after 13 days (100=total damage to plant; 0=no damage to plant). The following applies: rate 1,000 g/ha; for pest or weed control at 1000 g/ha: Alopecurus myosuroides, 312 h, read-out: Percentage damage caused to weed species, pre-emergence, ALOMY. How it is done: (§1) Seeds of Alopecurus myosuroides (ALOMY), Setaria faberi (SETFA), Echinochloa crus-galli (ECHCG), Solanum nigrum (SOLNI), Amaranthus retroflexus (AMARE) and Ipomoea hederaceae (IPOHE) were sown in standard soil in pots. […] The test plants were then grown under controlled conditions in the glasshouse (at 24/16° C., day/night; 14 hours light; 65% humidity) and watered twice daily. […]

The test system of assay [2] is Amaranthus retroflexus (AMARE). Described as above. The following applies: rate 1,000 g/ha; for pest or weed control at 1000 g/ha: Amaranthus retroflexus, 312 h, read-out: Percentage damage caused to weed species, pre-emergence, AMARE. As to the method: as §1
Assay [3] relates to Echinochloa crus-galli (ECHCG). The description is as above. The following applies: rate 1,000 g/ha; for pest or weed control at 1000 g/ha: Echinochloa crus-galli, 312 h, read-out: Percentage damage caused to weed species, pre-emergence, ECHCG. As to the method: as §1
The test system of assay [4] is Ipomoea hederaceae (IPOHE). The assay is described as above. The following applies: rate 1,000 g/ha; for pest or weed control at 1000 g/ha: Ipomoea, 312 h, read-out: Percentage damage caused to weed species, pre-emergence, IPOHE. How it is done:
as §1

Assay [5] concerns Setaria faberi (SETFA). Described as above. The note with it: rate 1,000 g/ha; for pest or weed control at 1000 g/ha: Setaria faberi, 312 h, read-out: Percentage damage caused to weed species, pre-emergence, SETFA. As to the method: as §1
Assay [6] has as its system Solanum nigrum (SOLNI). The assay is described as above. The note with it: rate 1,000 g/ha; for pest or weed control at 1000 g/ha: Solanum nigrum, 312 h, read-out: Percentage damage caused to weed species, pre-emergence, SOLNI. As to the method:
as §1

Assay [7] relates to Alopecurus myosuroides (ALOMY). Kind of assay: Post-emergence biological efficacy, glasshouse, 500 or 1000 g/ha, evaluated after 13 days (100=total damage to plant; 0=no damage to plant). The following applies: rate 1,000 g/ha; for pest or weed control at 1000 g/ha: Alopecurus myosuroides, 312 h, read-out: Percentage damage caused to weed species, post-emergence, ALOMY. How it is done:
(§2) Seeds of Alopecurus myosuroides (ALOMY), Setaria faberi (SETFA), Echinochloa […]), Solanum nigrum (SOLNI), Amaranthus retroflexus (AMARE) and Ipomoea hederaceae (IPOHE) were sown in standard soil in pots. […] The test plants were then grown on under controlled conditions in a glasshouse (at 24/16° C., day/night; 14 hours light; 65% humidity) and watered twice daily. […]

Assay [8] has as its system Amaranthus retroflexus (AMARE). Described as above. The following applies: rate 1,000 g/ha; for pest or weed control at 1000 g/ha: Amaranthus retroflexus, 312 h, read-out: Percentage damage caused to weed species, post-emergence, AMARE. As to the method: as §2
The test system of assay [9] is Echinochloa crusgaffi (ECHCG). The description is as above. The following applies: rate 1,000 g/ha; for pest or weed control at 1000 g/ha: Echinochloa, 312 h, read-out: Percentage damage caused to weed species, post-emergence, ECHCG. How it is done:
as §2

Assay [10] deals with Ipomoea hederaceae (IPOHE). Described as above. The note with it: rate 1,000 g/ha; for pest or weed control at 1000 g/ha: Ipomoea, 312 h, read-out: Percentage damage caused to weed species, post-emergence, IPOHE. As to the method:
as §2

Assay [11] has as its system Setaria faberi (SETFA). The assay is described as above. The note with it: rate 1,000 g/ha; for pest or weed control at 1000 g/ha: Setaria faberi, 312 h, read-out: Percentage damage caused to weed species, post-emergence, SETFA. As to the method: as §2
For assay [12], the system named is Solanum nigrum (SOLNI). Described as above. The following applies: rate 1,000 g/ha; for pest or weed control at 1000 g/ha: Solanum nigrum, 312 h, read-out: Percentage damage caused to weed species, post-emergence, SOLNI. As to the method:
as §2

The structures appear in SMILES notation.

As to `CCOC(=O)c1nc(-c2ccc(Cl)c(OC)c2F)cc2[nH]cc(C)c12` [Compound 22-75, 6-(4-chloro-2-fluoro-3-methoxyphenyl)-4-ethoxycarbonyl-3-methyl-1H-pyrrolo[3,2-c]pyridine], the pest or weed control at 1000 g/ha turned out to be 10% in assay [1]; 70% in assay [2]; 10% in [3]; 90% in [4]; 0% with Setaria faberi (SETFA) [5]; 80% with Solanum nigrum (SOLNI) [6]. Also, the pest or weed control at 1000 g/ha stood at 10% in assay [7]; 80% in assay [8]; 20% in assay [9]; 60% in [10]; 50% in the assay with Setaria faberi (SETFA) [11]; 90% with Solanum nigrum (SOLNI) [12].
As to `COc1c(Cl)ccc(-c2nc(C(=O)O)c3cc(C)n(CC4CC4)c3n2)c1F` [Compound 5-65, 4-Carboxy-2-(4-chloro-2-fluoro-3-methoxyphenyl)-7-cyclopropymethyl-6-methyl-7H-pyrrolo[2,3-d]pyrimidine], the pest or weed control at 1000 g/ha (in assay [1]; in assay [2]; in assay [3]; in assay [4]; in the assay with Setaria faberi (SETFA) [5]; with Solanum nigrum (SOLNI) [6]) was 0% each time. Moreover, the pest or weed control at 1000 g/ha came to 0% in assay [7]; 10% in [8]; 0% in assay [9]; 10% in assay [10]; 20% with Setaria faberi (SETFA) [11]; 20% in the assay with Solanum nigrum (SOLNI) [12].
Turning to `COC(=O)c1nc(Cl)cc2[nH]cc(Cl)c12` [Compound 22-132, 3,6-dichloro-4-methoxycarbonyl-1H-pyrrolo[3,2-c]pyridine], the pest or weed control at 1000 g/ha came to 0% in [1]; 0% in assay [2]; 0% in [3]; 40% in [4]; 0% with Setaria faberi (SETFA) [5]; 10% with Solanum nigrum (SOLNI) [6]. Besides, the pest or weed control at 1000 g/ha is 0% in [7]; 50% in assay [8]; 0% in assay [9]; 50% in assay [10]; 0% in the assay on Setaria faberi (SETFA) [11]; 60% with Solanum nigrum (SOLNI) [12].
Consider `COC(=O)c1nc(-c2ccc(Cl)c(F)c2)nc2[nH]cc(C)c12` [Compound 1-20, 2-(4-Chloro-3-fluorophenyl)-4-methoxycarbonyl-5-methyl-7H-pyrrolo[2,3-d]pyrimidine], for which the pest or weed control at 1000 g/ha in assay [1] turned out to be 0%; in assay [2] it was 50%; in [3], 0%; in assay [4], 0%; in the assay with Setaria faberi (SETFA) [5], 0%; in the assay on Solanum nigrum (SOLNI) [6], 0%. The pest or weed control at 1000 g/ha in [7] came to 0%; in [8] it was 70%; in assay [9], 0%; in assay [10] it was 60%; with Setaria faberi (SETFA) [11], 0%; in the assay on Solanum nigrum (SOLNI) [12], 70%.
As for `COc1c(Cl)ccc(-c2nc(C(=O)O)c3c(C)c[nH]c3n2)c1F` [Compound 1-63, 4-carboxy-2-(4-chloro-2-fluoro-3-methoxyphenyl)-5-methyl-7H-pyrrolo[2,3-d]pyrimidine], the pest or weed control at 1000 g/ha in assay [1] was 30%; in assay [2] it was 70%; in assay [3] it was 20%; in assay [4], 80%; in the assay on Setaria faberi (SETFA) [5], 10%; with Solanum nigrum (SOLNI) [6], 90%. The pest or weed control at 1000 g/ha came to 40% in assay [7]; 100% in [8]; 60% in [9]; 70% in [10]; 60% in the assay with Setaria faberi (SETFA) [11]; 100% in the assay with Solanum nigrum (SOLNI) [12].
Turning to `CCCCCCCCOC(=O)c1nc(-c2ccc(Cl)c(OC)c2F)cc2[nH]cc(C)c12` [Compound 22-77], the “Percentage damage caused to weed species, pre-emergence, ALOMY” value in [1] was determined as 10%. The “Percentage damage caused to weed species, pre-emergence, AMARE” value in assay [2] turned out to be 20%. Also, the “Percentage damage caused to weed species, pre-emergence, ECHCG” value in [3] was determined as 0%. The “Percentage damage caused to weed species, pre-emergence, IPOHE” value in assay [4] is 90%. Also, in the assay on Setaria faberi (SETFA) [5], the “Percentage damage caused to weed species, pre-emergence, SETFA” value worked out at 20%. Also, in the assay with Solanum nigrum (SOLNI) [6], the “Percentage damage caused to weed species, pre-emergence, SOLNI” value is 80%. Besides, the “Percentage damage caused to weed species, post-emergence, ALOMY” value in assay [7] amounted to 10%. For the same compound, the “Percentage damage caused to weed species, post-emergence, AMARE” value in [8] turned out to be 70%. Further, the “Percentage damage caused to weed species, post-emergence, ECHCG” value in assay [9] is on record as 0%. Besides, the “Percentage damage caused to weed species, post-emergence, IPOHE” value in [10] came out at 30%. For the same compound, the “Percentage damage caused to weed species, post-emergence, SETFA” value in the assay with Setaria faberi (SETFA) [11] is recorded as 0%. For the same compound, in the assay with Solanum nigrum (SOLNI) [12], the “Percentage damage caused to weed species, post-emergence, SOLNI” value was 90%.
With `COC(=O)c1nc(-c2ccc(Cl)c(OC)c2F)cc2c1ccn2Cc1ccco1` [Compound 32-62, 6-(4-Chloro-2-fluoro-3-methoxyphenyl)-1-(2-furanyl-methyl)-4-methoxycarbonyl-1H-pyrrolo[3,2-c]pyridine], the pest or weed control at 1000 g/ha in assay [1] is 30%; in assay [2], 80%; in [3], 30%; in [4], 20%; with Setaria faberi (SETFA) [5] it was 20%; with Solanum nigrum (SOLNI) [6] it was 80%. The pest or weed control at 1000 g/ha in [7] came out at 10%; in [8] it was 80%; in [9], 50%; in assay [10] it was 70%; in the assay with Setaria faberi (SETFA) [11], 40%; with Solanum nigrum (SOLNI) [12] it was 80%.
Consider `COC(=O)c1nc(-c2ccc(Cl)c(OC)c2F)nc2[nH]c(C)cc12` [Compound 1-66, 2-(4-chloro-2-fluoro-3-methoxyphenyl)-4-methoxycarbonyl-6-methyl-7H-pyrrolo[2,3-d]pyrimidine], for which the pest or weed control at 1000 g/ha in [1] is 20%; in [2], 100%; in assay [3], 40%; in assay [4], 90%; with Setaria faberi (SETFA) [5], 70%; with Solanum nigrum (SOLNI) [6] it was 100%. For the same compound, the pest or weed control at 1000 g/ha in assay [7] stood at 80%; in assay [8], 100%; in assay [9] it was 80%; in assay [10], 80%; in the assay on Setaria faberi (SETFA) [11] it was 80%; in the assay on Solanum nigrum (SOLNI) [12], 100%.
For `COC(=O)c1nc(-c2ccc(Cl)c(F)c2)nc2[nH]c(C)c(C)c12` [Compound 1-24, 2-(4-chloro-3-fluorophenyl)-5,6-dimethyl-4-methoxycarbonyl-7H-pyrrolo[2,3-d]pyrimidine], the pest or weed control at 1000 g/ha (in assay [1]; in assay [2]; in assay [3]; in assay [4]; with Setaria faberi (SETFA) [5]; in the assay on Solanum nigrum (SOLNI) [6]) was 0% in each case. Besides, the pest or weed control at 1000 g/ha came to 0% in assay [7]; 10% in [8]; 0% in [9]; 20% in assay [10]; 0% with Setaria faberi (SETFA) [11]; 50% in the assay on Solanum nigrum (SOLNI) [12].

For the origin of these results see patent publication US20120202690A1, “HERBICIDAL COMPOUNDS” (SYNGENTA LIMITED, priority 2009, published 2012).
